Laboratory results reported in publication PMC6651555, “Cathepsin L Inhibitors with Activity against the Liver Fluke Identified From a Focus Library of Quinoxaline 1,4-di-N-Oxide Derivatives” (Molecules, 2019).
“Also recorded” adds a separate entry of the source.

How the values were obtained:
FhCL1 = target: T1, FhCL1 (Fasciola hepatica, UniProt Q7JNQ9); assay: FhCL1 inhibition screening, IC50 and slow-binding (fluorogenic substrate Z-VLK-AMC); type: biochemical; conditions: read-out: %Inh FhCL1, 10 µM compound, 20 min preincubation, relative to enzyme alone; SD less than 10%
T1 construct: made in house; host or cells: Hansenula polymorpha (yeast)
Description: (§1) Each compound was completely dissolved in dimethylsulfoxide (DMSO) to a concentration of 10 mM to prepare the stock solutions. To evaluate the inhibition of FhCL1 and FhCL3 by quinoxaline 1,4-di-N-oxide derivatives, nanomolar concentrations of each enzyme was incubated with compounds at 10 μM. Briefly, each enzyme and compound were preincubated 20 min in a 96-well plate in 0.1 M sodium phosphate buffer pH 6, 1 mM DTT, and 1 mM EDTA at room temperature. The reaction was initiated by adding 20 μM of substrate and enzyme activity was measured by the increase in aminomethyl coumarin (AMC) fluorescence as peptide substrates were hydrolyzed (Z-VLK-AMC for FhCL1 and Tos-GPR-AMC for FhCL3), at an excitation wavelength of 340 nm and emission wavelength of 440 nm using a spectrofluorometer (Varioskan Thermo, Waltham, MA, USA). Enzyme activity was expressed as RFU/s (relative fluorescence units of AMC released per second). Each compound was tested in triplicate. A control reaction without enzymes was performed to check for the occurrence of non-catalyzed reactions between substrates and inhibitors and a spectrum from 300 to 450 nm wavelength was done for each quinoxaline 1,4-di-N-oxide derivative to verify that none of them had optical activity in the measurement range. The percentage of enzyme inhibition was calculated as 100 − (vi/vo) × 100, where vi and vo correspond to the initial rate of AMC fluorescence increase (RFU/s) with and without inhibitor, respectively.
(§2) To calculate the IC50 values, compounds were incubated with each enzyme at seven different concentrations; 0.625, 1.25, 2.5, 5, 10, 20, and 40 μM. Then, the enzyme activity was measured in a 96-well plate as described before. We plotted initial rates (RFU/s) versus log10 of inhibitor concentrations and obtained the IC50 values by fitting the data to a sigmoid curve. We also carried out slow-binding assays to evaluate the time-dependence of the inhibition. Each compound was incubated at 10 μM with the enzyme for increasing lengths of time; 3 to 120 min and the percentage of inhibition at each time point was determined as described before. We calculated the inhibition percentage of the leader compounds at 10 μM for HsCL1. The enzyme was preincubated for 20 min with the compounds and the activity was measured in a 96-well plate in 400 mM sodium acetate, pH 5.5, with 4 mM EDTA, 8 mM DTT, and 20 μM of substrate Z-VLK-AMC. The percentage of enzyme inhibition was calculated as described for FhCL1 and FhCL3. We determined the IC50 value for C17 against HsCL by incubating the enzyme with four different concentrations of the compound 0, 10, 25, and 50 μM and measuring the activity as described before. We plotted initial rates (RFU/s) versus log10 of inhibitor concentration and obtained the IC50 value by fitting the data to a sigmoid curve.

FhCL3 = FhCL3 inhibition screening, IC50 and slow-binding (fluorogenic substrate Tos-GPR-AMC); type: biochemical, Fasciola hepatica; conditions: 10 µM compound, 20 min preincubation, relative to enzyme alone; SD less than 10%
Description: as §1, §2

F. hepatica NEJ = assay: In vitro culture of NEJ and treatment with inhibitors (motility score); type: cell-based, Fasciola hepatica; conditions: 50 μM compound, over 96 h
Description: F. hepatica metacercariae were acquired from Instituto Miguel C. Rubino (DILAVE, MGAP, Uruguay). NEJ were obtained by in vitro excystement as previously described with minor modifications. Briefly, metacercariae were incubated with 1% sodium hypochlorite for 5 min at room temperature to remove the outer cyst wall and then washed several times with PBS. Metacercariae activation was carried out in a medium prepared by mixing equal volumes of solution A (0.4% sodium taurocholate, 120 mM NaHCO3, 140 mM NaCl, pH 8.0) and solution B (50 mM HCl and 33 mM L-cysteine), and incubating at 39 °C until the NEJ begin to emerge (around 3–4 h). A 100 μm filter was used to retain the cyst wall. Collected NEJ were washed three times with RPMI-1640 supplemented with 200 U/mL Penicillin G sulfate, […] streptomycin sulfate, 500 ng/mL amphotericin B, 10 mM HEPES, counted and divided into groups of around 20 parasites that were transferred to 96 wells in tissue culture plates. Parasites were maintained at 37 °C, 5% CO2 in modified Basch’s medium. At day 1, each tested compound was added at a concentration of 50 μM in 0.5% DMSO. Also, 0.5% of DMSO was added to the control groups. Each condition was tested in duplicate. NEJ behavior was monitored under a light microscope (Olympus BX41, Hamburg, Germany), every day each well was recorded for a minute in order to assess parasite motility and registered using the following score: 3—normally active; 2—reduced activity (sporadic movement); 1—immotile (dead, adapted from). Control parasites were maintained in culture for seven days.

HepG2 cell line = assay: Cytotoxicity on the HepG2 cell line (Sulforhodamin B); type: cell-based; conditions: Homo sapiens, 24 h incubation with compound
Description: (§3) Cytotoxicity studies on the HepG2 cell line. Cells: 1.5 × 10^4 cells per 96-well plate were cultured in 225 µL of DMEM medium, supplemented with L-glutamine (1%), penicillin/streptomycin (1%), and 10% (v/v) fetal bovine serum (FBS). The cultures were maintained at 37 °C and 5% CO2 for 48 h. Treatment: Compound solutions were prepared just before dosing. Stock solutions, […], were prepared in 100% DMSO (Aldrich, Saint Louis, MO, USA) and 25 µL of adequate dilution was added to each well 24 h after plating the cells. For each compound, a dose-response curve was done with five different compound concentrations: 6.25, 12.5, 25, 50, and 100 µM (treated cells, T). No effect on cell growth was observed by the presence of 0.5% DMSO in the culture media (control cells, C). Cells were incubated with the compounds for 24 h at 37 °C in 5% CO2 atmosphere, then the medium was discarded and the cells were washed with PBS. The cells were then fixed with 50 µL of TCA (50%) and 200 µL of culture medium (without FBS) for 1 h at 4 °C. Then the cells were washed with purified water and treated with Sulforhodamin B (0.4% wt/vol in 1% acetic acid) for 10 min at room temperature. The plates were then washed with 1% acetic acid and dried overnight. Finally, 100 µL of Tris buffer (pH = 10.0) was added and absorbance read at 540 nm. Data calculations: The assays were done in four replicates. At the end of the experiment, the cell survival percentage (SP) was calculated for each compound as (T/C) × 100. To determine the IC50, the SP of cells at each compound concentration was plotted and the data were fitted to a sigmoid curve. The standard error was not greater than 10% for any condition. For the cytotoxicity assay with bovine spermatozoa, semen samples were obtained from a healthy fertile Hereford bull and kept frozen in 0.5 mL straws (extended in Andromed, Minitube, Tiefenbach, Germany) under liquid nitrogen until use. The semen used belonged to a single freezing batch that was obtained during a regular collection schedule with an artificial vagina. Samples from three straws were thawed and a sperm pool was prepared in PBS at a concentration of 80 million spermatozoa per ml. Then, 50 μL of this pool was carefully mixed with 50 μL of each compound to be tested at a concentration of 50 µM or 1% DMSO in control experiments. Each compound was assayed in triplicate in 96-well plates and controls were assayed in triplicate. Plates were incubated at 37 °C for 1 h with moderate shaking. The motility analysis was carried out using a CASA (Computer Assisted Semen Analyzer) system Androvision (Minitube, Tiefenbach, Germany) with an Olympus BX 41 microscope (Olympus, Japan) equipped with a warm-stage at 37 °C. Each sample (10 μL) was placed onto a Makler Counting Chamber (depth 10 μm, Sefi-Medical Instruments, Haifa, Israel) and the following parameters were evaluated: percentage of total motile spermatozoa (motility >5 μm/s) and velocity curved line (VCL > 24 μm/s). At least 400 spermatozoa were analyzed from each sample from at least four microscope fields.

bovine spermatozoa = assay: Cytotoxicity assay with bovine spermatozoa (CASA motility); type: cell-based; conditions: 50 µM, 1 h at 37 °C, relative to control sperm incubated with vehicle
Description: as §3

T1 sequence (Q7JNQ9 entry or part of it): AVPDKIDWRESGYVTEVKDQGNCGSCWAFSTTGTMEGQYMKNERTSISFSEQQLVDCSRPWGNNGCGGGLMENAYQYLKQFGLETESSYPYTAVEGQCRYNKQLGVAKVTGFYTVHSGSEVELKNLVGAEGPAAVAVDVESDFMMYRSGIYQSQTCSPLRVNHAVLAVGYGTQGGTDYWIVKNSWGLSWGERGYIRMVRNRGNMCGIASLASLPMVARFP

Row | SMILES | inhibition at 10 µM (FhCL1) [%] | %Inh FhCL3 (FhCL3) [%] | Effect on NEJ motility / fasciolicide activity in vitro (F. hepatica NEJ) | IC50 (HepG2 cell line) [µM] | Sperm Motility RTC (relative to control) (bovine spermatozoa)
1 | N#Cc1c(N)[n+]([O-])c2cc(Cl)c(Cl)cc2[n+]1[O-] [Compound C9] | 15 | 0 |  |  | 
2 | Cc1c(C(=O)NCc2ccccc2)[n+]([O-])c2ccccc2[n+]1[O-] [Compound C25] | 47 | 40 |  |  | 
3 | C=CCN1C(=O)CS/C1=N/N=C/c1ccc2c(c1)[n+]([O-])c(C)c(C)[n+]2[O-] [Compound C12] | 0 | 22 |  |  | 
4 | Cc1c(C(=O)Nc2ccccc2)[n+]([O-])c2cc(CN3CCN(C/C=C/c4ccccc4)CC3)ccc2[n+]1[O-] [Compound C22] | 23 | 49 |  |  | 
5 | O=Cc1c[n+]([O-])c2ccccc2[n+]1[O-] [Compound C2] | 21 | 0 |  |  | 
6 | O=C(c1ccccc1)c1c(C(F)(F)F)[n+]([O-])c2cc(F)c(F)cc2[n+]1[O-] [Compound C28] | 0 | 38 |  |  | 
7 | C=CCNC(=S)N/N=C/c1ccc2c(c1)[n+]([O-])c(C(=O)Nc1ccccc1)c(C)[n+]2[O-] [Compound C20] | 72 | 0 |  |  | 
8 | C=CCNC(=S)N/N=C/c1ccc2c(c1)[n+]([O-])c(C(=O)OCC)c(C)[n+]2[O-] [Compound C15] | 38 | 58 | did not have activity against the parasites |  | 
9 | O=C(c1ccccc1)c1c(C(F)(F)F)[n+]([O-])c2ccccc2[n+]1[O-] [Compound C27] | 38 | 22 |  |  | 
10 | CCN(C/C=C/c1ccccc1)c1ccc2c(c1)[n+]([O-])c(C(=O)Nc1ccccc1)c(C)[n+]2[O-] [Compound C21] | 47 | 54 | progressive decrease of parasite motility starting between 24 and 96 h of culture |  | 
11 | Cc1c(Sc2ccccc2)[n+]([O-])c2cc(Cl)c(Cl)cc2[n+]1[O-] [Compound C16] | 35 | 22 |  |  | 
12 | Cc1c[n+]([O-])c2ccccc2[n+]1[O-] [Compound C1] | 1 | 8 |  |  | 
13 | Cc1c(C(=O)c2ccccc2)[n+]([O-])c2cc(F)c(F)cc2[n+]1[O-] [Compound C26] | 41 | 17 |  |  | 
14 | CCOC(=O)c1c(-c2ccccc2)[n+]([O-])c2cc(Cl)c(Cl)cc2[n+]1[O-] [Compound C19] | 54 | 35 | progressive decrease of parasite motility starting between 24 and 96 h of culture; also recorded: strong fasciolicide activity in vitro |  | 
15 | CSc1nc2cc(Cl)c(Oc3cccc(Cl)c3Cl)cc2[nH]1 [TCBZ, triclabendazole, reference compound] |  |  |  | 32 ± 0.2 | 88 ± 1
16 | C=CCn1c(-c2ccc(Cl)cc2)csc1=NN=Cc1ccc2c(c1)[n+]([O-])c(C)c(C)[n+]2[O-] [Compound C13] | 34 | 2 |  |  | 
17 | Cc1c(C)[n+]([O-])c2cc(/C=N/NC(=O)NCCc3ccccc3)ccc2[n+]1[O-] [Compound C11] | 56 | 32 | did not have activity against the parasites |  | 
18 | C=CCN1C(=O)CS/C1=N/N=C/c1ccc2c(c1)[n+]([O-])c(-c1ccccc1)c(C(=O)Nc1ccccc1)[n+]2[O-] [Compound C24] | ≥ 80 |  | progressive decrease of parasite motility starting between 24 and 96 h of culture; also recorded: strong fasciolicide activity in vitro | 16 ± 0.1 | 82 ± 1
19 | C=CCNC(=S)N/N=C/c1ccc2c(c1)[n+]([O-])c(C#N)c(N)[n+]2[O-] [Compound C5] | 20 | 39 |  |  | 
20 | CCCCNC(=O)N/N=C/c1ccc2c(c1)[n+]([O-])c(C#N)c(N)[n+]2[O-] [Compound C6] | 59 | 27 | did not have activity against the parasites |  | 
21 | N#Cc1c(N)[n+]([O-])c2ccccc2[n+]1[O-] [Compound C3] | 30 | 0 |  |  | 
22 | COC(=O)N/N=C/c1ccc2c(c1)[n+]([O-])c(C)c(C)[n+]2[O-] [Compound C10] | 13 | 3 |  |  | 
23 | COC(=O)N/N=C/c1ccc2c(c1)[n+]([O-])c(C#N)c(N)[n+]2[O-] [Compound C4] | 0 | 27 |  |  | 
24 | CCOC(=O)c1c(C)[n+]([O-])c2ccccc2[n+]1[O-] [Compound C14] | 28 | 5 |  |  | 
25 | CCN(C/C=C/c1ccccc1)c1ccc2c(c1)[n+]([O-])c(C#N)c(N)[n+]2[O-] [Compound C8] | 24 | 45 |  |  | 
